Results taken from PubChem BioAssay AID1895 (NMMLSC, 2009).
Active and inactive are the calls of the source. No rule for the calls is given here.

Target: MEK5 PB1 domain binding to MEKK2 (MAP3K2) mutant PB1, human
Experiment: mutant MEKK2 PB1-MEK5 interaction blockers – biochemical, bead multiplex flow cytometry, dose response (AID 1895)
Settings: Bead-based multiplex flow cytometry

EC50	SMILES
12 µM	CCCCCc1cc(=O)oc2c(C(CCN3CCCC(C)C3)c3ccc(OC)cc3)c(OC)cc(OC)c12 (configuration not stated)
> 30 µM (inactive)	CCOC(=O)N1CCN(c2c(N3CCN(c4ccccc4F)CC3)c(=O)c2=O)CC1
inactive	O=C1Nc2ccc(Br)cc2/C1=N/N=C/C1=C(N2CCOCC2)C(=C\c2ccccc2)/CC1
> 30 µM (inactive)	Cc1cc2ccccc2n1CCNC(=O)c1cccs1
> 30 µM (inactive)	CC[n+]1c(/C=C/C=C/N(C(C)=O)c2ccccc2)sc2ccccc21
> 30 µM (inactive)	CCN1/C(=C/c2ccc3cc(C)ccc3[n+]2CC)Sc2cc(C)c(C)cc21
inactive	CC(C)N=c1cc2n(-c3ccc(Cl)cc3)c3ccccc3nc-2cc1Nc1ccc(Cl)cc1
> 30 µM (inactive)	CCN1CCN(Cc2ccc(NC(=O)c3ccc(C)c(NC(=O)C(=O)c4c[nH]c5ccccc45)c3)cc2C(F)(F)F)CC1
> 30 µM (inactive)	CCCSc1ncnc2sc(C)c(C)c12
> 30 µM (inactive)	CCN1/C(=C/c2ccc3cc(C)ccc3[n+]2C)Sc2ccc3sccc3c21

The next lines start with the compound.

SMILES	EC50
COc1cc(CNCCc2c[nH]c3ccccc23)ccc1OCc1ccccc1F	> 30 µM (inactive)
COc1ccc(Cn2c(SCc3ccc(C)cc3)nc3cc(OC)c(OC)cc3c2=N)cc1Cl	2.23 µM
CNc1nc(-c2c[nH]c3ccccc23)cs1	> 30 µM (inactive)
Cc1nc(Nc2cnc(/C=C/c3cc(C(=O)Nc4cccc(C(F)(F)F)c4)ccc3C)cn2)cc(N2CCNCC2)n1	> 30 µM (inactive)
CCCCCCCCCCCCCCCC[n+]1ccc(/C=N/O)cc1	8.61 µM
C#CCOCCOCCOCCNc1nc(N2CCN(C(=O)[C@H]([C@@H](C)CC)n3cc([C@@H](N)Cc4ccc(O)cc4)nn3)CC2)nc(N2CCN(C(=O)[C@H](Cc3cc4ccccc4[nH]3)n3cc([C@@H](N)C(C)CC)nn3)CC2)n1 (some centres not stated)	10.1 µM
COc1ccc2nc3cc(Cl)ccc3c(Nc3cc(C(C)C)c(O)cc3C)c2c1	5.37 µM
CCCCCc1cc(=O)oc2c(C(CCN3CCCCC3)c3ccc4c(c3)OCO4)c(OC)cc(OC)c12 (configuration not stated)	> 30 µM (inactive)
COc1ccc(/C=N/Nc2cc(C)nc3ccc(Br)cc23)cc1	8.32 µM
CCN(CC)CCOC(=O)c1ccc(N/C=C(/C#N)c2nc(-c3ccc(OC)cc3)cs2)cc1	> 30 µM (inactive)
COC(=O)C1=C(C)N(Cc2ccccc2)C(=NCc2cccc(C(F)(F)F)c2)N[C@H]1c1cccc(F)c1	13.8 µM

Same assay, conditions: Bead-based multiplex flow cytometry, measured here: Ki for PB1 binding

Ki	SMILES
2.03 µM	O=C1Nc2ccc(Br)cc2/C1=N/N=C/C1=C(N2CCOCC2)C(=C\c2ccccc2)/CC1
